Target: T1, SHP2 (Homo sapiens, UniProt Q06124)
T1 sequence (Q06124 1-593): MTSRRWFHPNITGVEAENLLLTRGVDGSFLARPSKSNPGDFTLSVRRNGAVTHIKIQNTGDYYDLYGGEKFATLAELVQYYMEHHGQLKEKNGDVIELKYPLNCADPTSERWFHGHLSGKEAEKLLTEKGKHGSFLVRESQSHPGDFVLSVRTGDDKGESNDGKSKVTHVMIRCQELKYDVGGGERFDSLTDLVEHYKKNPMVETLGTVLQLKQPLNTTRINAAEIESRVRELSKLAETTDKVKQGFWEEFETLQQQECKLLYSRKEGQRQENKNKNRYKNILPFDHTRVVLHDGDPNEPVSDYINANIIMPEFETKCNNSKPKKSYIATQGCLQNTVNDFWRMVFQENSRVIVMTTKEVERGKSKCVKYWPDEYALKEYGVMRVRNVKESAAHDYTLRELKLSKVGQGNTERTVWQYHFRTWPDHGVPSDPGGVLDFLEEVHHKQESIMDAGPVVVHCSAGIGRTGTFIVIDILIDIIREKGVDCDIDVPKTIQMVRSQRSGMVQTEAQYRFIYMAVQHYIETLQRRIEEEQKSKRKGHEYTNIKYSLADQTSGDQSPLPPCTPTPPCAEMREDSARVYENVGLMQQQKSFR
Assay: biochemical
Conditions: read-out: SHP2 inhibition (%)@0.1 μM
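Note: compounds preincubated 30 min at room temperature in the assay mixture, activity referenced to a 0.5% (v/v) DMSO control taken as 100%, run in triplicate.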

SMILES | inhibition at 0.1 µM
Nc1nc(N2CCC3(CC2)Cc2ccc(N4CCOCC4)cc2[C@H]3N)cnc1Sc1ccnc(N)c1Cl [Example 60, (S)-1′-(6-amino-5-((2-amino-3-chloropyridin-4-yl)thio)pyrazin-2-yl)-6-morpholino-1,3-dihydro-spiro[indene-2,4′-piperidin]-1-amine] | 70%
Nc1nc(N2CCC3(CC2)Cc2ccc(C(=O)N4CCCCC4)cc2[C@H]3N)cnc1Sc1ccnc(N)c1Cl [Example 59, (S)-(1-amino-1′-(6-amino-5-((2-amino-3-chloropyridin-4-yl)thio)pyrazin-2-yl)-1,3-dihydrospiro [indene-2,4′-piperidin]-6-yl)(piperidin-1-yl)methanone] | 69%
Nc1cccc(Sc2cnc(N3CCC4(CC3)Cc3ccccc3[C@H]4N)cn2)c1Cl [Example 50, (S)-1′-(5-((3-amino-2-chlorophenyl)thio)pyrazin-2-yl)-1,3-dihydrospiro [indene-2,4′-piperidin]-1-amine] | 77%
Nc1ccc2c(c1)[C@@H](N)C1(CCN(c3cnc(Sc4ccnc(N)c4Cl)c(N)n3)CC1)C2 [Example 33, (S)-1′-(6-amino-5-((2-amino-3-chloropyridin-4-yl)thio)pyrazin-2-yl)-1,3-dihydrospiro[indene-2,4′-piperidine]-1,6-diamine] | 81%
NC(=O)c1cc2c(cc1F)CC1(CCN(c3cnc(Sc4ccnc(N)c4Cl)c(N)n3)CC1)[C@@H]2N [Example 43, (S)-1-amino-1′-(6-amino-5-((2-amino-3-chloropyridin-4-yl)thio)pyrazin-2-yl)-5-fluoro-1,3-dihydro-spiro[indene-2, 4′-piperidine]-6-carboxamide] | 79%
Nc1nc(N2CCC3(CC2)Cc2ccncc2[C@H]3N)cnc1Sc1ccnc(N)c1Cl [Example 21, (S)-1′-(6-amino-5-((2-amino-3-chloropyridin-4-yl)thio)pyrazin-2-yl)-5,7-dihydrospiro[cyclopenta [c]pyridine-6,4′-piperidin]-7-amine] | 49%
COc1nccc(Sc2cnc(N3CCC4(CC3)Cc3ccccc3[C@H]4N)cn2)c1Cl [Example 51, (S)-1′-(5-((3-chloro-2-methoxypyridin-4-yl)thio)pyrazin-2-yl)-1,3-dihydro-spiro[indene-2,4′-piperidin]-1-amine] | 85%
Nc1nc(N2CCC3(CC2)c2ncccc2C[C@H]3N)cnc1Sc1ccnc(N)c1Cl [Example 4, (R)-1′-(6-amino-5-((2-amino-3-chloropyridin-4-yl)thio)pyrazin-2-yl)-5,6-dihydrospiro[cyclopenta[b]pyridine-7,4′-piperidin]-6-amine] | 20%
C[S+]([O-])c1ccc2c(c1)[C@@H](N)C1(CCN(c3cnc(Sc4ccnc(N)c4Cl)c(N)n3)CC1)C2 (stereo partly drawn) [Example 25, (1S)-1′-(6-amino-5-((2-amino-3-chloropyridin-4-yl)thio)pyrazin-2-yl)-6-(methylsulfinyl)-1,3-dihydrospiro [indene-2,4′-piperidin]-1-amine] | 72%
Nc1nc(N2CCC3(CC2)Cc2cc(F)c(Br)cc2[C@H]3N)cnc1Sc1ccnc(N)c1Cl [Example 38, (S)-1′-(6-amino-5-((2-amino-3-chloropyridin-4-yl)thio)pyrazin-2-yl)-6-bromo-5-fluoro-1,3-dihydrospiro[indene-2,4′-piperidin]-1-amine] | 75%
CN(C)C(=O)c1ccc2c(c1)[C@@H](N)C1(CCN(c3cnc(Sc4ccnc(N)c4Cl)c(N)n3)CC1)C2 [Example 27, (S)-1-amino-1′-(6-amino-5-((2-amino-3-chloropyridin-4-yl)thio)pyrazin-2-yl)-N,N-dimethyl-1,3-dihydrospiro [indene-2,4′-piperidine]-6-carboxamide] | 79%
Nc1nc(N2CCC3(CC2)Cc2cc(F)c(F)cc2[C@H]3N)cnc1Sc1ccnc(N)c1Cl [Example 39, (S)-1′-(6-amino-5-((2-amino-3-chloropyridin-4-yl)thio)pyrazin-2-yl)-5,6-difluoro-1,3-dihydro-spiro[indene-2,4′-piperidin]-1-amine] | 67%
Nc1nc(N2CCC3(CC2)c2cccnc2C[C@H]3N)cnc1Sc1ccnc(N)c1Cl [Example 72, (R)-1′-(6-amino-5-((2-amino-3-chloropyridin-4-yl)thio)pyrazin-2-yl)-6,7-dihydrospiro[cyclopenta [b]pyridine-5,4′-piperidin]-6-amine] | 28%
N[C@@H]1c2ccccc2CC12CCN(c1cnc(Sc3ccnc(O)c3Cl)cn1)CC2 [Example 133, (S)-4-((5-(1-amino-1,3-dihydrospiro[indene-2,4′-piperidin]-1′-yl)pyrazin-2-yl)thio)-3-chloro pyridin-2-ol] | 76%
Nc1nc(N2CCC3(CC2)Cc2ccc(N4CCOCC4=O)cc2[C@H]3N)cnc1Sc1ccnc(N)c1Cl [Example 62, (S)-4-(1-amino-1′-(6-amino-5-((2-amino-3-chloropyridin-4-yl)thio)pyrazin-2-yl)-1,3-dihydrospiro [indene-2,4′-piperidin]-6-yl) morpholin-3-one] | 76%
Nc1nc(N2CCC3(CC2)Cc2c(ccc4ccccc24)[C@H]3N)cnc1Sc1ccnc(N)c1Cl [Example 31, (S)-1′-(6-amino-5-((2-amino-3-chloropyridin-4-yl)thio)pyrazin-2-yl)-1,3-dihydrospiro[cyclopenta [a]naphthalene-2,4′-piperidin]-3-amine] | 70%
Nc1nc(N2CCC3(CC2)Cc2c(Br)cccc2[C@H]3N)cnc1Sc1ccnc(N)c1Cl [Example 29, (S)-1′-(6-amino-5-((2-amino-3-chloropyridin-4-yl)thio)pyrazin-2-yl)-4-bromo-1,3-dihydro-spiro[indene-2,4′-piperidin]-1-amine] | 77%

Further lines, results first:

inhibition at 0.1 µM | SMILES
86% | Nc1nccc(Sc2cnc(N3CCC4(CC3)Cc3ccccc3C4N)cn2)c1Cl (stereo not shown) [Example 125, 1′-(5-((2-amino-3-chloropyridin-4-yl)thio)pyrazin-2-yl)-1,3-dihydrospiro [indene-2,4′-piperidin]-1-amine]
83% | Nc1nccc(Sc2cnc(N3CCC4(CC3)Cc3sc(Cl)nc3C4N)cn2)c1Cl (stereo not shown) [Example 131, 1′-(5-((2-amino-3-chloropyridin-4-yl)thio)pyrazin-2-yl)-2-chloro-4,6-dihydrospiro [cyclopenta[d]thiazole-5,4′-piperidin]-4-amine]
81% | N#Cc1ncccc1Sc1cnc(N2CCC3(CC2)Cc2ncccc2[C@H]3N)cn1 [Example 117, (S)-3-((5-(5-amino-5,7-dihydrospiro [cyclopenta[b]pyridine-6,4′-piperidin]-1′-yl)pyrazin-2-yl)thio) picolinonitrile]
94% | Nc1nc(N2CCC3(CC2)Cc2sc(Cl)nc2C3N)cnc1Sc1ccnc(N)c1Cl (stereo not shown) [Example 130, 1′-(6-amino-5-((2-amino-3-chloropyridin-4-yl)thio)pyrazin-2-yl)-2-chloro-4,6-dihydro-spiro[cyclopenta [d]thiazole-5,4′-piperidin]-4-amine]
81% | Nc1cccc(Sc2ncc(N3CCC4(CC3)Cc3ncccc3C4N)nc2N)c1Cl (stereo not shown) [Example 126, 1′-(6-amino-5-((3-amino-2-chlorophenyl)thio)pyrazin-2-yl)-5,7-dihydrospiro[cyclo-penta[b]pyridine-6,4′-piperidin]-5-amine]
75% | Nc1nc(N2CCC3(CC2)Cc2ccc(C(=O)O)cc2[C@H]3N)cnc1Sc1ccnc(N)c1Cl [Example 80, (S)-1-amino-1′-(6-amino-5-((2-amino-3-chloropyridin-4-yl)thio)pyrazin-2-yl)-1,3-dihydrospiro [indene-2,4′-piperidine]-6-carboxylic acid]
86% | N[C@@H]1c2cccnc2CC12CCN(c1cnc(Sc3ccnc(F)c3Cl)cn1)CC2 [Example 115, (S)-1′-(5-((3-chloro-2-fluoropyridin-4-yl)thio)pyrazin-2-yl)-5,7-dihydrospiro [cyclopenta[b]pyridine-6,4′-piperidin]-5-amine]
72% | COc1cccc2c1C(N)C1(CCN(c3cnc(Sc4ccnc(N)c4Cl)c(N)n3)CC1)C2 (stereo not shown) [Example 148, 1′-(6-amino-5-((2-amino-3-chloropyridin-4-yl)thio)pyrazin-2-yl)-7-methoxy-1,3-dihydrospiro[indene-2,4′-piperidin]-1-amine]
74% | Nc1nc(N2CCC3(CC2)Cc2cc(Br)ccc2C3N)cnc1Sc1ccnc(N)c1Cl (stereo not shown) [Example 129, 1′-(6-amino-5-((2-amino-3-chloropyridin-4-yl)thio)pyrazin-2-yl)-5-bromo-1,3-dihydro-spiro[indene-2,4′-piperidin]-1-amine]
83% | Nc1nc(N2CCC3(CC2)Cc2cnccc2C3N)cnc1Sc1ccnc(N)c1Cl (stereo not shown) [Example 127, 1′-(6-amino-5-((2-amino-3-chloropyridin-4-yl)thio)pyrazin-2-yl)-5,7-dihydrospiro [cyclopenta[c]pyridine-6,4′-piperidin]-5-amine]
82% | Nc1nccc(Sc2cnc(N3CCC4(CC3)Cc3scnc3C4N)cn2)c1Cl (stereo not shown) [Example 154, 1′-(5-((2-amino-3-chloropyridin-4-yl)thio)pyrazin-2-yl)-4,6-dihydrospiro[cyclopenta[d]thiazole-5,4′-piperidin]-4-amine]

Reference: patent US10988466B2, “Heterocyclic derivatives useful as SHP2 inhibitors” (Jacobio Pharmaceuticals Co., Ltd., priority 2017, dated 2021)
